Reference: patent publication US20090030055A1, “PKC activation as a means for enhancing s[sequence] secretion and improving cognition using bryostatin type compounds” (priority 2002, published 2009)
pKi: −log10 of the molar value. Entries after “also recorded” stand apart in the source; their conditions may differ.

Legend:
PKC [1] = experiment: PKC affinity of bryostatin 1 and bryologs; type: binding; details: times more potent than bryostatin-1
Excerpt: Analogs of bryostatin, commonly referred to as bryologs, are one particular class of PKC activators that are suitable for use in the methods of the present invention. […] Structurally, they are all similar. While bryostatin-1 has two pyran rings and one 6-membered cyclic acetal, in most bryologs one of the pyrans of bryostatin-1 is replaced with a second 6-membered acetal ring. This modification […] the stability of bryologs, relative to bryostatin-1, for example, in both strong acid or base, but has little significance at physiological pH. Bryologs also have a lower molecular weight (ranging from about 600 to 755), as compared to bryostatin-1 (988), a property which facilitates transport across the blood-brain barrier.

PKC [2] = details: cited from earlier work
[3] = humans; cited from earlier work
[4] = test system: double transgenic mice carrying the V7171 mutation and a Presenilin-1 (PS1) mutation; experiment: Double transgenic mice (V7171 and Presenilin-1 mutation) treated with Bryostatin-1; type: in vivo; details: 40 μg/k.g. i.p. three times a week
Experimental: A second transgenic study using similar procedures/testing and protocol was performed using double transgenic mice carrying the V7171 mutation and a Presenilin-1 (PS1) mutation, which causes accelerated amyloid formation, with the following major differences. Approximately 40 mice including both treated and controls were utilized. Treatment began at approximately 3 weeks of age and consisted of treatments with 40 μg/k.g. i.p. three times a week using Bryostatin-1. Controls were given vehicle alone. The treatment continued for approximately seven months before the morbidity rate of the non-treated animals necessitated termination of the experiment (see FIG. 10).

[5] = test system: sAPPα secretion, control cell lines AG07141 and AG06241; experiment: sAPPα secretion immunoblot, control fibroblasts; type: cell-based, human; details: two control cell lines pooled, 0.1 nM, compared to DMSO alone
Experimental: (§1) Cultured skin fibroblasts were obtained from the Coriell Cell Repositories and grown using the general guidelines established for their culture with slight modifications (Cristofalo & Carpentier, 1988; Hirashima et al., 1996). The culture medium in which cells were grown was Dulbecco's modified Eagle's medium (GIBCO) supplemented with 10% fetal calf serum (Biofluids, Inc.). Fibroblasts from control cell lines (AC), cases AG07141 and AG06241, and a familial AD (FAD) case (AG06848) were utilized.
Cells grown to confluence in 6 cm Petri dishes for 5-7 days. On the day of the experiment, medium was replaced with DMEM without serum and left undisturbed for 2 h. Upon completion of the 2 hour serum deprivation; treatment was achieved by direct application to the medium of Bryo, BL and DMSO at the appropriate concentrations. (0.1 and 0.01 nM for bryostatin; 0.1 nM, 0.1 μM, and 1 μM BL). DMSO was less than 1% in all cases. […]
The concentration of secreted APP was measured using conventional immunoblotting techniques, with minor modifications the protocol. […] The signal was then detected using enhanced chemiluminescence followed by exposure of Hyperfilm ECL (Amersham). The band intensities were quantified by densitometry using a BioRad GS-800 calibrated scanning densitometer and Multianalyst software (BioRad).

[6] = test system: sAPPα secretion, AD cell line AG06848; experiment: sAPPα secretion immunoblot, AD fibroblasts; type: cell-based, human; details: for secretion of sAPPα: AD cell line AG06848, three hours of treatment, relative to DMSO
Experimental: as §1
Cells grown to confluence in 6 cm Petri dishes for 5-7 days. On the day of the experiment, medium was replaced with DMEM without serum and left undisturbed for 2 h. Upon completion of the 2 hour serum deprivation; treatment was achieved by direct application to the medium of Bryo, BL and DMSO at the appropriate concentrations. (0.1 and 0.01 nM for bryostatin; 0.1 nM, 0.1 μM, and 1 μM BL). DMSO was less than 1% in all cases. In most cases, medium was collected and processed after 3 hours of treatment for sAPP secretion. Other time points were also used to establish a time course of secretion.
sAPP—Determinations/Measurements of sAPPα
The concentration of secreted APP was measured using conventional immunoblotting techniques, with minor modifications the protocol. Precipitated protein extracts from each dish/treatment were loaded to freshly prepared 10% acrylamide Tris-HCl minigels and separated by SDPAGE. The volume of sample loaded was corrected for total cell protein per dish. Proteins were then electrophoretically transferred to PVDF membranes. Membranes were saturated with 5% non-fat dry milk to block non-specific binding. Blocked membranes were incubated overnight at 4° C. with the commercially available antibody 6E10 (1:500), which recognizes sAPP-alpha in the conditioned medium (SENETEK). After washing, the membranes were incubated at room temperature with horseradish peroxidase conjugated anti-mouse IgG secondary antibody (Jackson's Laboratories). The signal was then detected using enhanced chemiluminescence followed by exposure of Hyperfilm ECL (Amersham). The band intensities were quantified by densitometry using a BioRad GS-800 calibrated scanning densitometer and Multianalyst software (BioRad).

PKC-α = target: T1, PKC-α (Homo sapiens, UniProt P17252); experiment: Immunoblot assay for PKC translocation, α isoenzyme; type: cell-based
T1 construct: endogenous in cells; host or cells: human fibroblasts (AD patient and control lines)
Experimental: Immunoblot experiments were conducted using well-established procedures (Dunbar, 1994). Cells were grown to confluency (˜90%) in 6 cm Petri dishes. […] Fibroblasts were washed twice with ice-cold PBS, scraped in PBS, and collected by low-speed centrifugation. The pellets were re-suspended in the following homogenization buffer: 20 mM Tris-HCl, pH 7.5, 2 mM EDTA, 2 mM EGTA, 5 mM DTT, 0.32 M sucrose, and protease inhibitor cocktail (Sigma). […] The pellets were homogenized in the same buffer containing 1.0% Triton X-100, incubated in ice for 45 minutes, and centrifuged at ˜12,000 g for 20 minutes. The supernatant from this batch was used as the membranous fraction. After protein determination, 20 μg of protein were diluted in 2× electrophoresis sample buffer (Novex), boiled for 5 minutes, run on 10% acrylamide gel, and transferred electrophoretically to a PVDF membrane. The membrane was saturated with 5% milk blocker by incubating it at room temperature for an hour. The primary antibody for PKC isoform (Transduction Laboratories) was diluted (1:1000) in blocking solution and incubated with the membrane overnight at 4° C. […] The band intensities were quantified by densitometry using a BioRad GS-800 calibrated scanning densitometer and Multianalyst software (BioRad).

Wistar albino rats = experiment: Morris Water Maze; type: in vivo; details: for learning, escape latency from trial to trial: i.c.v. 1 μl/site of 2 μM, vs vehicle control
Excerpt: (See, for example, Hollister, L. E., 1990, Pharmacopsychiat., 23, (Suppl II) 33-36). The available animal models of memory loss and impaired learning involve measuring the ability of animals to remember a discrete event. These tests include the Morris Water Maze and the passive avoidance procedure. In the Morris Water Maze, animals are allowed to swim in a tank divided into four quadrants, only one of which has a safety platform beneath the water. The platform is removed and the animals are tested for how long they search the correct quadrant verse the incorrect quadrants. In the passive avoidance procedure the animal remembers the distinctive environment in which a mild electric shock is delivered and avoids it on a second occasion. A variant of the passive avoidance procedure makes use of a rodent's preference for dark enclosed environments over light open ones. Further discussion can be found in Crawley, J. N., 1981, Pharmacol. Biochem. Behav., 15, 695-699; Costall, B. et al., 1987, Neuropharmacol., 26, 195-200; Costall, B. et at, 1989, Pharmacol. Biochem. Behav., 32, 777-785; Barnes, J. M. et al., 1989, Br. J. Pharmacol., 98 (Suppl) 693P; Barnes, J. M. et al., 1990, Pharmacol. Biochem. Behav., 35, 955-962.
Wistar albino rats (n=20) weighing between 220-250 g were housed for one week with free access to food and water. Stainless steel cannulas were placed bilaterally in each rat, following previously described procedures (49). […] Subsequently, animals were assigned randomly to experimental and control groups. At least 24 h prior to treatment and training, all animals were pre-exposed to the MWM experimental situation by placing them in the water and allowed to swim for 120 s. The training followed standard procedures (49) and consisted of two trials per day for 4 consecutive days. […] The control group received the same volume of vehicle alone, on identical schedule. On the fifth day, the platform was removed and the retention test was conducted. Animals' movements and escape latencies were recorded with an automatic tracking system. […] Acquisition of memory was measured as time spent in the relevant quadrant (5th day). […] Bryostatin-1 is capable of being used at concentrations to improve cognition that are 300 to 300,000 times lower than the concentration used to treat tumors.

[7] = approximately seven months, vs vehicle

CCCCCCCC(=O)O[C@H]1/C(=C/C(=O)OC)C[C@H]2C[C@H](CO)OC(=O)C[C@H](O)C[C@@H]3CCC[C@H](C[C@@H]4CCO[C@H](/C=C/C(C)(C)[C@]1(O)O2)O4)O3 [Analog 1]
potency relative to bryostatin-1 (PKC [1]): about 100 times | affinity for PKC, in words (PKC [2]): highest affinity | pKi (PKC [2]; read-out: PKC Affin): 9.60

CCC/C=C/C=C/C(=O)O[C@H]1/C(=C/C(=O)OC)C[C@H]2C[C@H]([C@@H](C)O)OC(=O)C[C@H](O)C[C@@H]3C[C@H](OC(C)=O)C(C)(C)[C@](O)(C[C@@H]4C/C(=C/C(=O)OC)C[C@H](/C=C/C(C)(C)[C@]1(O)O2)O4)O3 [Bryostatin 1]
main adverse reaction [3]: myalgia | maximum dose, limited by myalgia [3]: 40 mg/m2 | percent plaque load, Thioflavin S staining ([4]; approximately seven months, vs controls): decrease in percent plaque load | behavioural differences, water testing [4, 7]: not significant | total APP [4, 7]: overall lower amount; also recorded: noticeable change | life span, life percentage over time ([4]; vs controls, listed as Bryostatin): increase in life span | life span, life percentage over time ([4]; vs controls, listed as Bryostatin-1): greater life percentage over time | secretion of sAPPα ([5]; listed as Bryostatin): effective in enhancing secretion | secretion of sAPPα ([5]; listed as bryostatin): enhanced the secretion of sAPPα | sAPPα secretion, time-course ([6]; 0.01 nM compared with 0.1 nM, 2 and 3 h of incubation): undistinguishable from the higher | sAPPα secretion, time-course ([6]; 0.01 nM, only after 60 min of incubation): robust enhancement | sAPPα secretion, time-course ([6]; 0.1 nM, 2 and 3 h compared with 60 min): did not substantially differ from 60 min incubation | sAPPα secretion, time-course ([6]; 0.1 nM, 30 and 60 min): Progressive and proportional increases | sAPPα secretion, time-course ([6]; 0.1 nM, 15 min incubation): marked increase | secretion of sAPPα ([6]; 0.1 nM, listed as Bryostatin): dramatically enhanced | secretion of sAPPα ([6]; 0.1 nM, listed as bryostatin): dramatic increase | time of maximal PKC translocation (measure of activation) (PKC-α): 30 min | time to improved cognition over control rats (Wistar albino rats; i.c.v.): ≤ 2 days | learning, escape latency from trial to trial (Wistar albino rats; listed as bryostatin): significantly faster | learning, escape latency from trial to trial (Wistar albino rats; listed as bryostatin 1): significantly lower | memory or retention, time spent in the relevant quadrant (Wistar albino rats; i.c.v., 5th day, platform removed, vs controls): significantly enhanced
